# From publication PMC9469208 (Journal of Medicinal Chemistry, 2022)
# Tests used:
# [1] = test system: NMDA receptors (tonic NMDA currents)
# [2] = test system: maximal electroshock seizures in mice; conditions: mouse, in vivo; cited from earlier work
# [3] = test system: PTZ-induced seizures in mice; conditions: mouse, in vivo; cited from earlier work
# [4] = test system: 6 Hz (32 mA) seizures in mice; conditions: mouse, in vivo; cited from earlier work
Compound,effect on tonic NMDA currents [1],ED50 (MES) [2],ED50 (scPTZ) [3],ED50 (6 Hz 32 mA) [4] [mg/kg]
NC(CCCP(=O)(O)O)C(=O)O (centres unmarked) [AP-5],fully inhibited,–,–,–
"C=C(C)[C@@H]1CCC(C)=C[C@H]1c1c(O)cc(CCCCC)cc1O [CBD, cannabidiol]",–,80 (65.5–96.0) mg/kg,120 (98.5–146) mg/kg,–
"CCC1(C)CC(=O)NC1=O (centres unmarked) [ETX, ethosuximide]",–,–,140.4 (115.8–170.2) mg/kg,>200
